Results from patent US4590199A, “Antihistaminic 2-(amino ethylamino) pyridines” (priority 1983, dated 1986).

Assays:
[1] = target: T1, histamine response of longitudinal muscle isolated from the intact ileum of guinea-pigs (Cavia porcellus, UniProt P31389); test: In vitro antihistaminic activity (histamine concentration-response curves, Schild plot); format: cell-based, guinea-pig (Hartley, male); conditions: for Kb: guinea-pig ileum longitudinal muscle, one hour incubation with test compound, Schild plot, read-out: pA2 (converted); for antihistamine activity (in words): of the compounds of formula (I)
T1 construct: The longitudinal muscle was isolated from the intact ileum of guinea-pigs; from tissue; host or cells: longitudinal muscle of guinea-pig ileum (Hartley, male)
T1 sequence (P31389 whole entry): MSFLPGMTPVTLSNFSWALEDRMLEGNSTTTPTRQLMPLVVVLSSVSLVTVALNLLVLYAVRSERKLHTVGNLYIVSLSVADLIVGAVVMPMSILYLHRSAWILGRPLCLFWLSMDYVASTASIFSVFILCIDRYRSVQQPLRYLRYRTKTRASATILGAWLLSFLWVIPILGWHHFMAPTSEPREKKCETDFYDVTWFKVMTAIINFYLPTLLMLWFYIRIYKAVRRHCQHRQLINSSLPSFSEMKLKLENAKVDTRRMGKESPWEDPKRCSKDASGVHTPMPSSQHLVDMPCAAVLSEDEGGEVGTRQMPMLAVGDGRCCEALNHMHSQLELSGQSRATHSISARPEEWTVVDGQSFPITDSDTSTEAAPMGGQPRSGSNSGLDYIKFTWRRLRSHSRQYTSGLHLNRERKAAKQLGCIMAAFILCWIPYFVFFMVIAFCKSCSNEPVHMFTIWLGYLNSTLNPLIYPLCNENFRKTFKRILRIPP
Protocol: In vitro antihistaminic activity: The longitudinal muscle was isolated from the intact ileum of guinea-pigs (Hartley, male 250-400 g) and placed in an organ bath under 300 mg tension. After one hour of equilibration, cumulative concentration-response curves (Van Rossum, J. M., Arch. Int. Pharmacodyn. Ther. 143, 299-330, 1963) to histamine were obtained. Following washing, the tissues were incubated for one hour with the test compound and then a second histamine concentration-response curve was run. Shifts to the right of the agonist concentration-response curve produced by the antagonists were used to construct Schild plots (Arunlakshana, O. and Schild, H. O., Br. J. Pharmacol: 14, 48-58, 1959). Regression of Log (dr-1) on Log [B], where dr is an equiactive response in the presence and absence of antagonist and [B] is the molar concentration of antagonist, allowed an estimate of pA2, i.e. the negative log of the concentration of antagonist which shifts the control histamine concentration-response curve 2X to the right.

[2] = antihistamines now in use; causes dryness of mouth, blurred vision and tachycardia; cited from earlier work
[3] = human, in vivo; cited from earlier work

With `COc1ccc(CN(CCN(C)C)c2ccc(C(=O)O)cn2)cc1` [Compound B, 6-(N-(2-dimethylaminoethyl)-4-methoxybenzylamino) nicotinic acid] the Kb [1] was 1260 nM and the “antihistamine activity (in words)” value [1] was “particularly active”.
In the case of `CC(CN1c2ccccc2Sc2ccccc21)N(C)C` (centres unmarked) [promethazine], the anticholinergic activity [2] is given as “varying degrees of anticholinergic activity”.
For `COc1ccc(CN(CCN(C)C)c2cccc(/C=C/C(=O)O)n2)cc1` [Compound A, (E)-3-(6-(N-(2-dimethylaminoethyl)-4-methoxybenzylamino)-2-pyridyl)acrylicacid], the Kb [1] was 251 nM and the “antihistamine activity (in words)” value [1] was “particularly active”.
In the case of `COc1ccc(CN(CCN(C)C)c2ccccn2)cc1` [Pyrilamine, N,N-dimethyl-N'-(4-methoxyphenylmethyl)-N'-2-pyridyl-1,2-ethanediamine], the sedation and drowsiness [3] is listed as “produces sedation and drowsiness in varying degrees in most patients” and the anticholinergic activity [2] is listed as “varying degrees of anticholinergic activity”.
For `Cc1ccc(/C(=C\CN2CCCC2)c2ccccn2)cc1` [triprolidine], the anticholinergic activity [2] is given as “varying degrees of anticholinergic activity”.
